Experimental data taken from patent US8629173B2, “Solid forms comprising (+)-2-[1-(3-ethoxy-4-methoxyphenyl)-2-methylsulfonylethyl]-4-acetylaminoisoindoline-1,3-dione, compositions thereof, and uses thereof” (Celgene Corporation, priority 2002, dated 2014).

Experiments:
[1] = system: LPS-induced TNF-α production from human PBMC; test: LPS-induced TNF-α production from human PBMC; format: cell-based; details: LPS 100 ng/ml, 18-20 hours
Protocol: Lipopolysaccharide (LPS) is an endotoxin produced by gram-negative bacteria such as E. coli which induces production of many pro-inflammatory cytokines, including TNF-α. In peripheral blood mononuclear cells (PBMC), the TNF-α produced in response to LPS is derived from monocytes, which comprise approximately 5-20% of the total PBMC. Compounds were tested for the ability to inhibit LPS-induced TNF-α production from human PBMC as previously described (Muller et al., 1996, J. Med. Chem., 39:3238). PBMC from normal donors were obtained by Ficoll Hypaque (Pharmacia, Piscataway, N.J., USA) density centrifugation. Cells were cultured in RPMI (Life Technologies, Grand Island, N.Y., USA) supplemented with 10% AB±human serum (Gemini Bio-products, Woodland, Calif., USA), 2 mM L-glutamine, 100 U/ml penicillin, and 100 μg/ml streptomycin (Life Technologies).
PBMC (2×10^5 cells) were plated in 96-well flat-bottom Costar tissue culture plates (Corning, N.Y., USA) in triplicate. Cells were stimulated with LPS (Sigma, St. Louis, Mo., USA) at 100 ng/ml in the absence or presence of compounds. Compounds (Celgene Corp., Warren, N.J., USA) were dissolved in DMSO (Sigma) and further dilutions were done in culture medium immediately before use. The final DMSO concentration in all samples was 0.25%. Compounds were added to cells one hour before LPS stimulation. […]

[2] = system: SEB-induced IFN-γ production; test: cells; format: cell-based; details: Homo sapiens, PBMC, 18 h, read-out: IFN-γ IC50

## CCOc1cc(C(CS(C)(=O)=O)N2C(=O)c3cccc(NC(C)=O)c3C2=O)ccc1OC (single isomer, unassigned; (+)) [Compound A, (+)-2-[1-(3-ethoxy-4-methoxyphenyl)-2-methylsulfonylethyl]-4-acetylaminoisoindoline-1,3-dione]
[1]
  IC50: 77 nM
[2]
  IC50: 46 nM
